Results reported in the supplement of paper PMC11208160.

Test: recombinant barcode read abundance after kanamycin selection (control-corrected) (log10(CPM+1)); higher = more efficient recombination; sequences stand for … in AGTGCAGAGAAAATCGGCCAGTTTTCTCTGCCTGCAGTCCGCATGCCGT…ATTTATGCAGCGGACTGCCTTTCTCCCAAAGTGATAAACCGGACAGTATCATGGACCGGTTTTCCCGGTAATCCGTATTTGCAAGGTTGGTTTCACT; site = the 11-nt target
Procedure: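 Same pooled E. coli target screen (IS621 bridge recombinase, kanamycin selection, control-corrected CPM, mean of 2 biological replicates). Here the two core-binding nucleotides of the LTG and RTG of the bridge RNA target-binding loop are mutated. Target and donor CT cores are held constant, and the other 9 guide positions match the target. The target is read from the library oligo sequence. Molecule = full bridge RNA written as DNA: nt 1-80 from the library oligo, rest WT scaffold.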

Sequence	recombinant barcode read abundance (log10)
AGGCGGTTGTGGGTTCTAACCTGTTGCTTAG [AGGCGGTCTAA_LTGcore_TG_RTGcore_CT] (site AGGCGGTCTAA) (LTG core: TG, RTG core: CT)	0.113
AGTCTTAAGTGGGTTCTAACCTGTTGCCAAG [AGTCTTACTTG_LTGcore_AG_RTGcore_CT] (site AGTCTTACTTG) (LTG core: AG, RTG core: CT)	0.102
AGTCTTAATTGGGTTCTAACCTGTTGCCAAT [AGTCTTACTTG_LTGcore_AT_RTGcore_AT] (site AGTCTTACTTG) (LTG core: AT, RTG core: AT)	0.0434
AGTCTTACCTGGGTTCTAACCTGTTGCCAGG [AGTCTTACTTG_LTGcore_CC_RTGcore_CC] (site AGTCTTACTTG) (LTG core: CC, RTG core: CC)	0.117
AGTCTTACTTGGGTTCTAACCTGTTGCCACA [AGTCTTACTTG_LTGcore_CT_RTGcore_TG] (site AGTCTTACTTG) (LTG core: CT, RTG core: TG)	0.032
AGTCTTATATGGGTTCTAACCTGTTGCCAAG [AGTCTTACTTG_LTGcore_TA_RTGcore_CT] (site AGTCTTACTTG) (LTG core: TA, RTG core: CT)	0.0306
AGTCTTATTTGGGTTCTAACCTGTTGCCAAA [AGTCTTACTTG_LTGcore_TT_RTGcore_TT] (site AGTCTTACTTG) (LTG core: TT, RTG core: TT)	0.0474
ATGCTTTAATGGGTTCTAACCTGTTGCCTAG [ATGCTTTCTAG_LTGcore_AA_RTGcore_CT] (site ATGCTTTCTAG) (LTG core: AA, RTG core: CT)	0.0699
ATGCTTTATTGGGTTCTAACCTGTTGCCTAG [ATGCTTTCTAG_LTGcore_AT_RTGcore_CT] (site ATGCTTTCTAG) (LTG core: AT, RTG core: CT)	0.162
ATGCTTTCTTGGGTTCTAACCTGTTGCCTAG [ATGCTTTCTAG_LTGcore_CT_RTGcore_CT] (site ATGCTTTCTAG) (LTG core: CT, RTG core: CT)	0.384
ATGCTTTCTTGGGTTCTAACCTGTTGCCTCT [ATGCTTTCTAG_LTGcore_CT_RTGcore_AG] (site ATGCTTTCTAG) (LTG core: CT, RTG core: AG)	0.0217
ATGCTTTCTTGGGTTCTAACCTGTTGCCTGA [ATGCTTTCTAG_LTGcore_CT_RTGcore_TC] (site ATGCTTTCTAG) (LTG core: CT, RTG core: TC)	0.0714
ATGCTTTGCTGGGTTCTAACCTGTTGCCTAG [ATGCTTTCTAG_LTGcore_GC_RTGcore_CT] (site ATGCTTTCTAG) (LTG core: GC, RTG core: CT)	0.0505
ATGCTTTGGTGGGTTCTAACCTGTTGCCTCC [ATGCTTTCTAG_LTGcore_GG_RTGcore_GG] (site ATGCTTTCTAG) (LTG core: GG, RTG core: GG)	0.235
ATGTCCCACTGGGTTCTAACCTGTTGCTCGT [ATGTCCCCTGA_LTGcore_AC_RTGcore_AC] (site ATGTCCCCTGA) (LTG core: AC, RTG core: AC)	0.183
ATGTCCCAGTGGGTTCTAACCTGTTGCTCAG [ATGTCCCCTGA_LTGcore_AG_RTGcore_CT] (site ATGTCCCCTGA) (LTG core: AG, RTG core: CT)	0.0996
ATGTCCCATTGGGTTCTAACCTGTTGCTCAG [ATGTCCCCTGA_LTGcore_AT_RTGcore_CT] (site ATGTCCCCTGA) (LTG core: AT, RTG core: CT)	0.234

Sequence	recombinant barcode read abundance (log10)
ATGTCCCCTTGGGTTCTAACCTGTTGCTCCG [ATGTCCCCTGA_LTGcore_CT_RTGcore_CG] (site ATGTCCCCTGA) (LTG core: CT, RTG core: CG)	0.249
ATGTCCCCTTGGGTTCTAACCTGTTGCTCGC [ATGTCCCCTGA_LTGcore_CT_RTGcore_GC] (site ATGTCCCCTGA) (LTG core: CT, RTG core: GC)	0.327
ATGTCCCCTTGGGTTCTAACCTGTTGCTCGG [ATGTCCCCTGA_LTGcore_CT_RTGcore_CC] (site ATGTCCCCTGA) (LTG core: CT, RTG core: CC)	0.29
ATGTCCCGATGGGTTCTAACCTGTTGCTCAG [ATGTCCCCTGA_LTGcore_GA_RTGcore_CT] (site ATGTCCCCTGA) (LTG core: GA, RTG core: CT)	0.647
ATGTCCCGGTGGGTTCTAACCTGTTGCTCAG [ATGTCCCCTGA_LTGcore_GG_RTGcore_CT] (site ATGTCCCCTGA) (LTG core: GG, RTG core: CT)	0.294
ATGTCCCGTTGGGTTCTAACCTGTTGCTCAC [ATGTCCCCTGA_LTGcore_GT_RTGcore_GT] (site ATGTCCCCTGA) (LTG core: GT, RTG core: GT)	0.0823
ATGTCCCTCTGGGTTCTAACCTGTTGCTCAG [ATGTCCCCTGA_LTGcore_TC_RTGcore_CT] (site ATGTCCCCTGA) (LTG core: TC, RTG core: CT)	0.209
ATGTCCCTGTGGGTTCTAACCTGTTGCTCAG [ATGTCCCCTGA_LTGcore_TG_RTGcore_CT] (site ATGTCCCCTGA) (LTG core: TG, RTG core: CT)	0.0616
ATGTCCCTGTGGGTTCTAACCTGTTGCTCCA [ATGTCCCCTGA_LTGcore_TG_RTGcore_TG] (site ATGTCCCCTGA) (LTG core: TG, RTG core: TG)	0.0547
CATATTAACTGGGTTCTAACCTGTTGCCTAG [CATATTACTAG_LTGcore_AC_RTGcore_CT] (site CATATTACTAG) (LTG core: AC, RTG core: CT)	0.441
CATATTACCTGGGTTCTAACCTGTTGCCTAG [CATATTACTAG_LTGcore_CC_RTGcore_CT] (site CATATTACTAG) (LTG core: CC, RTG core: CT)	0.0888
CATATTACTTGGGTTCTAACCTGTTGCCTCC [CATATTACTAG_LTGcore_CT_RTGcore_GG] (site CATATTACTAG) (LTG core: CT, RTG core: GG)	0.2
CATATTACTTGGGTTCTAACCTGTTGCCTTA [CATATTACTAG_LTGcore_CT_RTGcore_TA] (site CATATTACTAG) (LTG core: CT, RTG core: TA)	0.12
CATATTACTTGGGTTCTAACCTGTTGCCTTG [CATATTACTAG_LTGcore_CT_RTGcore_CA] (site CATATTACTAG) (LTG core: CT, RTG core: CA)	0.214
CATATTAGATGGGTTCTAACCTGTTGCCTAG [CATATTACTAG_LTGcore_GA_RTGcore_CT] (site CATATTACTAG) (LTG core: GA, RTG core: CT)	0.239
CGAGCCCAATGGGTTCTAACCTGTTGCTGTT [CGAGCCCCTCA_LTGcore_AA_RTGcore_AA] (site CGAGCCCCTCA) (LTG core: AA, RTG core: AA)	0.0507
CGAGCCCCTTGGGTTCTAACCTGTTGCTGAT [CGAGCCCCTCA_LTGcore_CT_RTGcore_AT] (site CGAGCCCCTCA) (LTG core: CT, RTG core: AT)	0.29
